Our source for the EC50 values is patent US20140357641A1, “IP receptor agonist heterocyclic compounds” (NOVARTIS AG, priority 2012, published 2014).

pEC50: −log10 of the molar value.

In this assay the target is T1, IP receptor (Homo sapiens, UniProt P43119).
T1 construct: expressed in transfected cells
Description: cAMP accumulation in CHO cells stably expressing the IP receptor (CHO-IP), Perkin Elmer AlphaScreen assay. The format is cell-based. Conditions: agonist activity, 1 hour at room temperature. On the procedure:
Activity of compounds at the IP receptor (IP receptor) is assessed by measuring cAMP accumulation in CHO cells stably expressing the IP receptor (CHO-IP) using the Perkin Elmer AlphaScreen assay. This technology measures the endogenous production of cAMP, in a non-radioactive luminescence proximity homogenous assay. A biological reaction occurs between streptavidin coated donor beads, biotinylated cAMP and anti-cAMP acceptor beads, bringing the donor and acceptor beads close enough together so that upon excitation a fluorescence signal is produced. On production of endogenous cAMP, competition between the biotinylated cAMP and cellular-derived cAMP causes a reduction in the fluorescent signal. The reduction in signal is proportional to the amount of cAMP being produced, thus it is possible to quantify the amount of cAMP being produced on stimulation with agonist.
Test and reference compounds are prepared at 100× [final] in 100% DMSO, and diluted 1:3 using a Biomek Fx (Beckman Coulter). This is followed by an intermediate dilution to give 5× [final] in assay buffer (HBSS containing 5 mM HEPES, 0.1% (w/v) BSA). 5 μL of 5× [final] test compounds, reference compounds and buffer/DMSO control are then transferred to a 384-well white OptiPlate, containing 20 μL CHO-IP cell suspension (15,000 cells/well, prepared from frozen), and plate is incubated at room temperature for 1 hour. A cAMP standard curve is constructed for each experiment (concentration range of 10000 nM to 0.001 nM, in assay buffer) and 25 μL of each concentration added to the last two columns of the assay plate. The incubation is terminated by the addition of lysis buffer (dH2O; 0.3% (v v^−1) Tween-20) containing 20 units mL^−1 streptavidin coated donor beads and biotinylated cAMP (pre-incubated for 30 minutes) and 20 units mL^−1 anti-cAMP acceptor beads, which are added to the lysis buffer just before addition to the assay plate. The assay plate is then incubated at room temperature in the dark, for 60 minutes with gentle shaking, and read on the Envision plate reader (Perkin Elmer).
The raw data of the reference compounds, test compounds and controls are converted into cAMP concentrations, using the cAMP standard curve, in GraphPadPrism (GraphPad Software Inc). EC50 as well as maximal values of the agonist curves are determined using a 4-parameter logistic equation. The % maximum response values of all test compounds are determined using the top of the treprostinil concentration-response curve.

T1 sequence (P43119 whole entry): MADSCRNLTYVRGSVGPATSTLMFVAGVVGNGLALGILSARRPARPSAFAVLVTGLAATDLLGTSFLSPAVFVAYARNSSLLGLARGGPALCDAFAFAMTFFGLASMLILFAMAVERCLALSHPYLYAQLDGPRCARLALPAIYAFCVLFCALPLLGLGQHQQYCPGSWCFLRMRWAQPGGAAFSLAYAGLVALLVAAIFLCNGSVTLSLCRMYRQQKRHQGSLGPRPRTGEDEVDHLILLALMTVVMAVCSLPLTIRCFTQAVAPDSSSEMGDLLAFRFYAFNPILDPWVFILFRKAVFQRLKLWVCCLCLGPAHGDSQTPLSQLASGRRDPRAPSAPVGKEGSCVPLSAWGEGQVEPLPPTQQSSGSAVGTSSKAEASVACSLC

`Cc1ccc(-c2nc3c(nc2-c2ccc(C)cc2)N(CCCCC2SC(=O)NC2=O)CCC3)cc1` (racemic) [Example 1, rac-5-(4-(2,3-Di-p-tolyl-7,8-dihydropyrido[2,3-b]pyrazin-5(6H)-yl)butyl)thiazolidine-2,4-dione] had a pEC50 of 8.05. In turn, `Cc1ccc(-c2nc3c(nc2-c2ccc(C)cc2)N(CCCCC2SC(=O)NC2=O)CCC3)cc1` (single isomer, unassigned) [1(b), (S)-5-(4-(2,3-di-p-tolyl-7,8-dihydropyrido[2,3-b]pyrazin-5(6H)-yl)butyl)thiazolidine-2,4-dione or (R)-5-(4-(2,3-di-p-tolyl-7,8-dihydropyrido[2,3-b]pyrazin-5(6H)-yl)butyl)thiazolidine-2,4-dione] had a negative-log EC50 (pEC50) of 7.92. For the molecule `Cc1ccc(-c2nc3c(nc2-c2ccc(C)cc2)N(CCCCCCc2noc(=O)[nH]2)CCC3)cc1` [Example 6, 3-(6-(2,3-Di-p-tolyl-7,8-dihydropyrido[2,3-b]pyrazin-5(6H)-yl)hexyl)-1,2,4-oxadiazol-5(4H)-one], the pEC50 was 7.55. Under `Cc1ccc(-c2nc3c(nc2-c2ccc(C)cc2)N(CCCCc2cc(O)no2)CCC3)cc1` [Example 8, 5-(4-(2,3-Di-p-tolyl-7,8-dihydropyrido[2,3-b]pyrazin-5(6H)-yl)butyl)isoxazol-3-ol] stands 7.46; under `Cc1ccc(-c2nc3c(nc2-c2ccc(C)cc2)N(CCCCCc2noc(=O)[nH]2)CCC3)cc1` [Example 6.1, 3-(5-(2,3-Di-p-tolyl-7,8-dihydropyrido[2,3-b]pyrazin-5(6H)-yl)pentyl)-1,2,4-oxadiazol-5(4H)-one], 7.81; under `Cc1ccc(-c2nc3c(nc2-c2ccc(C)cc2)N(CCCCC2=C(O)CCC2=O)CCC3)cc1` [Example 5, 2-(4-(2,3-Ddi-p-tolyl-7,8-dihydropyrido[2,3-b]pyrazin-5(6H)-yl)butyl)-3-hydroxycyclopent-2-enone], 6.78.

In turn, `Cc1ccc(-c2nc3c(nc2-c2ccc(C)cc2)N(CCCCCC2=C(O)CCC2=O)CCC3)cc1` [Example 3, 2-(5-(2,3-Di-p-tolyl-7,8-dihydropyrido[2,3-b]pyrazin-5(6H)-yl)pentyl)-3-hydroxycyclopent-2-enone] showed a negative-log EC50 (pEC50) of 8.11. Under `Cc1ccc(-c2nc3c(nc2-c2ccc(C)cc2)N(CCCCC2CC(=O)NO2)CCC3)cc1` (centres unmarked) [Example 7, 5-(4-(2,3-Di-p-tolyl-7,8-dihydropyrido[2,3-b]pyrazin-5(6H)-yl)butyl)isoxazolidin-3-one] stands 8.54; under `Cc1ccc(-c2nc3c(nc2-c2ccc(C)cc2)N(CCCC/C=C2/SC(=O)NC2=O)CCC3)cc1` [Example 4, 5-(5-(2,3-Ddi-p-tolyl-7,8-dihydropyrido[2,3-b]pyrazin-5(6H)-yl)pentylidene)thiazolidine-2,4-dione], 8.70; under `Cc1ccc(-c2nc3c(nc2-c2ccc(C)cc2)N(CCCCc2noc(=O)[nH]2)CCC3)cc1` [Example 6.2, 3-(4-(2,3-Di-p-tolyl-7,8-dihydropyrido[2,3-b]pyrazin-5(6H)-yl)butyl)-1,2,4-oxadiazol-5(4H)-one], 7.83. Under `Cc1ccc(-c2nc3c(nc2-c2ccc(C)cc2)N(CCCCC2SC(=O)NC2=O)CCC3)cc1` (single isomer, unassigned) [1(a), (S)-5-(4-(2,3-di-p-tolyl-7,8-dihydropyrido[2,3-b]pyrazin-5(6H)-yl)butyl)thiazolidine-2,4-dione or (R)-5-(4-(2,3-di-p-tolyl-7,8-dihydropyrido[2,3-b]pyrazin-5(6H)-yl)butyl)thiazolidine-2,4-dione] stands 8.43.
